B1: 3-phosphoshikimate 1-carboxyvinyltransferase (Escherichia coli K-12), P0A6D3 (protein)
chain: MESLTLQPIARVDGTINLPGSKSVSNRALLLAALAHGKTVLTNLLDSDDVRHMLNALTALGVSYTLSADRTRCEIIGNGGPLHAEGALELFLGNAGTAMRPLAAALCLGSNDIVLTGEPRMKERPIGHLVDALRLGGAKITYLEQENYPPLRLQGGFTGGNVDVDGSVSSQFLTALLMTAPLAPEDTVIRIKGDLVSKPYIDITLNLMKTFGVEIENQHYQQFVVKGGQSYQSPGTYLVEGDASSASYFLAAAAIKGGTVKVTGIGRNSMQGDIRFADVLEKMGATICWGDDYISCTRGELNAIDMDMNHIPDAAMTIATAALFAKGTTTLRNIYNWRVKETDRLFAMATELRKVGAEVEEGHDYIRITPPEKLNFAEIATYNDHRMAMCFSLVALSDTPVTILDPKCTAKTFPDYFEQLARISQAA

The first series deals with T1, 3-phosphoshikimate 1-carboxyvinyltransferase (Escherichia coli K-12) (UniProt P0A6D3).
T1 sequence (whole entry): B1 chain
Kind of series: (§1) Enzyme Kinetic activity was calculated against Escherichia coli EPSP(5-enolpyruvyl-shikimate-3-phosphate) Synthase.
With `C=C(O[C@@H]1CC(C(=O)O)=C[C@@H](O)[C@H]1O)C(=O)O`, the k cat is 0.2 s⁻¹.

Substrate in a further series: C=C(O[C@@H]1CC(C(=O)O)=C[C@@H](O)[C@H]1O)C(=O)O
Described as §1.
As to B1, the Km (commonly the substrate concentration at which the rate is half of its maximum) was 24 mM.

For another series, the target named is T2, 3-phosphoshikimate 1-carboxyvinyltransferase (Escherichia coli K-12, UniProt P0A6D3).
T2 sequence (P0A6D3 whole entry): B1 chain
Kind of series: Inhibition of Escherichia coli EPSP(5-enolpyruvyl-shikimate-3-phosphate) Synthase.
Regarding `O=C(O)C1=CC(OC(C(=O)O)C(=O)O)CCC1` (stereo not drawn), the IC50 (in general, the concentration at which inhibition is half-maximal) worked out at 15 mM.

Consider `O=C(O)C1=C/C(=C/P(=O)(O)O)CCC1`, for which the IC50 was over 90 mM.

Molecule `O=C(O)C1=CC(OCP(=O)(O)O)CCC1` (stereo not drawn) yielded an IC50 of over 90 mM.

`O=C(O)C1=CC(OP(=O)(O)O)CCC1` (stereo not drawn) displayed an IC50 of 7.5 mM.

`O=C(O)C1=CC(CP(=O)(O)O)CCC1` (stereo not drawn) returned an IC50 of over 90 mM.

For `O=C(O)C1=C/C(=C\P(=O)(O)O)CCC1`, the IC50 is over 90 mM.

On to `C=C(O[C@@H]1CC(C(=O)O)=C[C@@H](O)[C@H]1O)C(=O)O`, for which the IC50 is over 90 mM.

`O=C(O)CO[C@@H]1CC(C(=O)O)=C[C@@H](O)[C@H]1O` came in with an IC50 of over 90 mM.

Molecule `O=C(O)CO[C@@H]1CC(C(=O)O)=C[C@@H](OP(=O)(O)O)[C@H]1O` displayed an IC50 of 0.1 mM.

In the case of `O=C(CP(=O)(O)O)O[C@@H]1CC(C(=O)O)=C[C@@H](O)[C@H]1O`, the IC50 was over 90 mM.

`O=C(O)C1=CC(C(C(=O)O)C(=O)O)CCC1` (stereo not drawn) had an IC50 of over 90 mM.
